Measured values: PubChem BioAssay (NCI)
Several values for one entry are separate records, joined by “and”; a condition that tells them apart may be missing. Equal values may be shown once.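 1) Cells in 96-well plates. 2) Compound, 48 h, 5 concentrations. 3) Linear interpolation between surrounding doses. 4) Unreached endpoint = highest concentration. Here, GI50 denotes the concentration required for 50% inhibition of growth. TGI is the concentration that stops growth completely.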

Columns and labels:
Test in all cases: NCI anticancer screen, dose series, 48 h
OVCAR-3 ovarian = tested on: OVCAR-3 ovarian
IGROV1 ovarian = tested on: IGROV1 ovarian
UACC-62 melanoma = tested on: UACC-62 melanoma
A498 renal = tested on: A498 renal
MOLT-4 leukemia = tested on: MOLT-4 leukemia
K-562 leukemia = tested on: K-562 leukemia
NCI/ADR-RES ovarian = tested on: NCI/ADR-RES ovarian
KM12 colon = tested on: KM12 colon
SK-MEL-5 melanoma = tested on: SK-MEL-5 melanoma
T-47D breast = tested on: T-47D breast

Structure (SMILES)	GI50 (OVCAR-3 ovarian)	TGI (OVCAR-3 ovarian)	GI50 (IGROV1 ovarian)	TGI (IGROV1 ovarian) [µM]	GI50 (UACC-62 melanoma)	TGI (UACC-62 melanoma) [µM]	GI50 (A498 renal)	TGI (A498 renal) [µM]	GI50 (MOLT-4 leukemia)	TGI (MOLT-4 leukemia) [µM]	GI50 (K-562 leukemia)	TGI (K-562 leukemia) [µM]	GI50 (NCI/ADR-RES ovarian)	TGI (NCI/ADR-RES ovarian) [µM]	GI50 (KM12 colon)	TGI (KM12 colon) [µM]	GI50 (SK-MEL-5 melanoma)	TGI (SK-MEL-5 melanoma)	GI50 (T-47D breast) [µM]	TGI (T-47D breast) [µM]
Fc1ccc(-c2c(-c3ccncc3)nc3n2CCS3)cc1	> 25 µM	> 25 µM	> 25 µM	> 25	> 25 µM	> 25	> 15.6 µM	> 25	> 25 µM	> 25	> 25 µM	> 25	> 25 µM	> 25	> 25 µM	> 25	> 25 µM	> 25 µM	> 25	> 25
Oc1ccc(C=Nc2ccccc2O)cc1		> 100 µM		> 100		> 100		> 100		> 100		> 100		> 100		> 100		62.7 µM		> 100
O=C1N[C@@H]2[C@@H](O)[C@@H](O)[C@H](O)C[C@H]2c2cc3c(c(O)c21)OCCO3	0.276 µM	1.01 µM	0.389 µM	3.13	0.272 µM	1.38	0.392 µM	1.58	0.193 µM	3.16	0.13 µM	11.2	0.629 µM	5.38	0.169 µM	1.1	0.192 µM	0.478 µM	0.176	1.31
C=CN(C(=O)N1CCN(c2cc3c(cc2F)c(=O)c(C(=O)O)cn3C2CC2)CC1)c1nc(-c2ccc(OC)cc2)cs1	3.29 µM	> 100 µM	3.89 µM	> 100			2.93 µM	> 100	3.36 µM	> 100	3.14 µM	> 100	3.07 µM	9.07	3.12 µM	> 100	2.11 µM	4.78 µM	3.12	> 100
COc1cc(/C=C/c2cc(/C=C/c3ccc(O)c(OC)c3)n(C(=O)c3ccc(Cl)cc3)n2)ccc1O	2.67 µM	7.72 µM	3.17 µM	15.4	2.72 µM	10.1	2.71 µM	9.6	1.64 µM	11.9	0.807 µM	16.4	2.9 µM	18	1.24 µM	14.4	2.27 µM	11.6 µM	1.92	5.86
CC[C@H](C)[C@H](NC(=O)[C@H]1CCCCN1C)C(=O)N(C)[C@H](C[C@@H](OC(C)=O)c1cccc(C(=O)N[C@@H](Cc2ccccc2)C[C@H](C)C(=O)OC)n1)C(C)C	0.000398 µM and < 0.0025 µM	0.00308 µM and < 0.0025 µM	0.000812 µM and 0.00506 µM	> 25	0.000589 µM and 0.0025 µM	> 25	0.00445 µM and 0.0025 µM	0.0166	0.00811 µM and 0.0111 µM	> 25	0.00243 µM and 0.0025 µM	> 25	0.175 µM and 0.276 µM	> 25	0.00188 µM and 0.0025 µM	> 25	0.00107 µM and 0.0025 µM	0.0382 µM and 0.0333 µM	0.000953	
O=C(NCCCCN1CCOCC1)c1cc2ccccc2o1	> 100 µM	> 100 µM	> 100 µM	> 100	> 100 µM	> 100	> 100 µM	> 100			> 100 µM	> 100	> 100 µM	> 100	> 100 µM	> 100	> 100 µM	> 100 µM	> 100	> 100
C=C(c1ccc(OC)c(/C=C/C(=O)c2ccc3c(c2)OCO3)c1)c1cc(OC)c(OC)c(OC)c1	2.98 µM	8.21 µM	4.31 µM	> 100	1.32 µM	> 100	2.72 µM	> 100	3.08 µM	> 100	0.783 µM	13.9	2.77 µM	37.2			1.97 µM	6.71 µM	2.66	> 100
O=C(O)CSc1n[nH]c(=O)[nH]c1=O		> 100 µM		> 100		> 100		> 100		> 100		> 100		> 100		> 100		> 100 µM		> 100
Nc1nc(/C=C\c2ccc([N+](=O)[O-])s2)nc(N2CCN(c3ccccc3)CC2)n1	19 µM	35.9 µM	14.5 µM	34.7	13.6 µM	30.8	0.0746 µM	15.5	23.1 µM	75.3	15.3 µM	49.5	21.3 µM	53	16.6 µM	38.7	0.157 µM		14.2	43.2
CC(=O)O[C@@H]1C2CCC3C(CC[C@@]4(C)C3CC[C@@H]4C(C)N(C)C)[C@@]2(C)CC[C@@H]1NC(=O)C=C(C)C (stereo partly specified)	2.24 µM	7.42 µM	4.76 µM	16	2.03 µM	3.96	2.32 µM	9.78	2.33 µM	5.69	1.1 µM	3.15	4.26 µM	17.7	2.66 µM	9.5	1.38 µM	2.68 µM	1.75	6.23
Cc1nc([N+](=O)[O-])cn1-c1nc2ccccn2c1[N+](=O)[O-]		> 100 µM		> 100		> 100		> 100				> 100		> 100		> 100		> 100 µM		> 100
CN[C@H]1CN(c2ccc3c(=O)c(C(=O)O)cn(-c4nccs4)c3n2)C[C@@H]1OC	1.82 µM	6.48 µM	0.353 µM	7.15	0.359 µM	1.95	0.273 µM	2.01	0.126 µM	1	0.632 µM	5.81	1.3 µM	7.56	1.37 µM	13.9	0.831 µM	2.23 µM	1.23	7.76
O=c1oc2ccc(I)cc2c(=O)n1-c1ccc(Br)cc1F	0.511 µM	8.89 µM	0.745 µM	13.3	0.31 µM	1.17	0.225 µM	0.697	1.59 µM	5.18	0.536 µM	> 71.7	0.798 µM	6.09	2.07 µM	4.69	0.317 µM	1.04 µM	0.856	6.7
